The results in this text go back to patent US20090314217A1, “APPARATUS AND METHOD FOR TREATING NON-HUMAN MAMMALS” (Under The Boardwalk Properties 8 (Proprietary) Limited, priority 2006, published 2009).

Data set [1] can be described thus: Blood oxygen tests immediately before and after transdermal ozone therapy (Table 2). In kind it is in vivo, horse. To be noted: for PO2 / SO2: post-treat (immediately after therapy); for K+ blood concentration / Na+ blood concentration: post-treat; for K+ blood concentration: normal range 5.3-3.0; for Na+ blood concentration: normal range 150.0-133.0. As for the experimental part:
Blood tests were also conducted for three horses to determine when transdermal ozone therapy should be provided. The horses were Shamon, Pauli and Sinbad. The blood tests were conducted immediately before transdermal ozone therapy and immediately thereafter. For the horse Shamon, blood tests were also conducted 12 hours and 24 hours after transdermal ozone therapy.

Data set [2] can be described thus: Haematocrit in horses with billiary treated in apparatus 10. The format is in vivo, horse. To be noted: after two treatment sessions, increased from 31.

Molecules are shown by their SMILES.

As for `O=[O+][O-]` [ozone], the PO2 in data set [1] (horse Pauli, pre-treat 39.30) is on record as 49.20 mmHg; in data set [1] (horse Shamon, pre-treat 40.00), 52.70 mmHg; in data set [1] (horse Sinbad, pre-treat 35.90), 48.00 mmHg. Moreover, the SO2 in data set [1] (horse Pauli, pre-treat 80.30) was found to be 87.10%; in data set [1] (horse Shamon, pre-treat 74.60) it was 90.50%; in data set [1] (horse Sinbad, pre-treat 70.60), 86.40%. The “K+ blood concentration” value in data set [1] (horse Pauli, pre-treat 3.73) was 4.37 mmol/L; in data set [1] (horse Shamon, pre-treat 3.41), 4.09 mmol/L; in data set [1] (horse Sinbad, pre-treat 3.49), 3.04 mmol/L. The “Na+ blood concentration” value is reported as 144.30 mmol/L in data set [1] (horse Pauli, pre-treat 143.00); 148.30 mmol/L in data set [1] (horse Shamon, pre-treat 136.00); 150.20 mmol/L in data set [1] (horse Sinbad, pre-treat 147.40). Besides, the “dehydration effect of transdermal ozone therapy” value in data set [1] (horses Shamon, Pauli, Sinbad) was “no dehydration effect”. In addition, the “Na+, K+ and Cl- blood concentrations versus normal ranges” value in data set [1] (horses Shamon, Pauli, Sinbad, before and after therapy) is “remained within normal ranges”. For the same compound, the haematocrit in data set [2] is 38%.
